Patent US3983156A, “Substituted ω-nitroacetophenones” (Beecham Group Limited, priority 1973, dated 1976)

Tested on: rat PCA response
Assay: Rat Passive Cutaneous Anaphylaxis (PCA) test
Type: in vivo, rat (Wistar)
Settings: sc, subcutaneous
Method: Some of the ω-nitroacetophenones prepared in the preceding Examples were submitted for biological testing. The test system was the Rat Passive Cutaneous Anaphylaxis (PCA) test described below in (ii).
i. Serum containing heat labile homocytotropic antibody was raised in rats by a method similar to that used by Mota. (I. Mota Immunology 1964, 7, 681).
Male Wistar rats of 250-300 g, were injected intraperitoneally with 0.5 ml of Bordatella pertussis vaccine (containing 4 × 10^10 dead organism per ml) and subcutaneously with 0.5 ml of an emulsion of 100 mg. of ovalbumin in 2 ml of saline and 3 ml of incomplete Freunds' adjuvant. Rats were bled by cardiac puncture on day 18, the blood was pooled and separated and serum stored at -20° and thawed only once before use.
ii. The P.C.A. test was similar to that described by Ovary and Bier (A. Ovary and O. E. Bier, Prod. Soc. Exp. Biol. Med. 1952, 81, 584) and Goose and Blair (J. Goose and AM.J. N Blair, Immunology 1969, 16, 769)
0.1 ml of each of six twofold serial dilutions of the serum in 0.9% saline were injected intradermally into separate sites on the shaved dorsal surface of 250-350 g Wistar rats. 72 hours later the animals were challlenged by i.v. injection of 0.3 ml of 1% ovalbumin mixed with 0.1 ml of a 5% solution of pontamine sky blue dye both in isotonic saline buffered with pH. 7.2 Sorenson buffer (P.B.S.). The rats were killed after 20 minutes and the diameter of the blue wheals at the antibody injection sites were measured. The starting dilution of the serum was adjusted so that there was no response, after challenge, at the site of injection of the highest dilution and a maximum response at the two or three lowest dilutions. Typically, six twofold serial dilutions of the serum from 1/4 to 1/128 were used.
Compounds were tested for their ability to reduce the diameter of the wheals at the injection sites of dilutions of antibody which on all the controls have less than maximum response. Amounts of the compounds were administered to rats by subcutaneous injection, into the nuchal region, of a solution of the compound in P.B.S. or as a suspension in 1% methyl cellulose, each amount to a test group of six animals at a specified time prior to intravenous challenge with ovalbumin. THe diameters of the blue wheals which developed on the tests group of aimals were compared with those on a control group of six animals treated in the same way as the test group, but which; had received an equivalent subcutaneous injection of the carrier fluid not containing the same volume of the compound under test.
% Inhibition of P.C.A. = 100 (1 - a/b)
a = The mean of the sum of the diameters of the wheals produced in the test group of animals at those antibody sites where all the control group of animals gave less than maximum response.
b = The mean of the sum of diameters of the wheals produced in the control group of amimals at those antibody sites where all the animals in the group gave less than maximum response.
The preferred method of administration was a solution of the test compound dissolved in pH 7.2 buffer and neutralised with sodium bicarbonate. For those compounds having insoluble sodium salts, the salts were isolated by reaction of the free nitro compound with 2.5N sodium hydroxide and the filtered sodium salt washed free of alkali with water. The dried salts were then administered as a suspension in 1% methyl cellulose.

Compound | inhibition in vivo at 25 mg/kg (0 mins prior to challenge) [%] | inhibition in vivo at 25 mg/kg (30 mins prior to challenge) [%] | inhibition in vivo at 84 mg/kg (0 mins prior to challenge) [%] | inhibition in vivo at 84 mg/kg (30 mins prior to challenge) [%] | inhibition in vivo at 25 mg/kg (60 mins prior to challenge) [%] | inhibition in vivo at 100 mg/kg (0 mins prior to challenge) [%] | inhibition in vivo at 100 mg/kg (60 mins prior to challenge) [%] | inhibition in vivo at 100 mg/kg (30 mins prior to challenge) [%]
O=C(C[N+](=O)[O-])c1cccc(-c2ccccc2)c1C(=O)O [Example 10, ω-nitro-3-phenylacetophenone-2-carboxylic acid] | 2 | 11 | 23 | 21 |  |  |  | 
CCCOC(=O)c1cc(C)c(C)cc1C(=O)C[N+](=O)[O-] [Example 5, 2-^n propoxycarbonyl-4,5-dimethyl-ω-nitroacetophenone] | 7 |  |  |  | 44 | 11 | 54 | 
COC(=O)c1cc(C)c(C)cc1C(=O)C[N+](=O)[O-] [Example 3, 2-methoxycarbonyl-4,5-dimethyl-ω-nitroacetophenone] | 22 |  |  |  | 51 | 34 | 58 | 
CCOC(=O)c1cc(C)c(C)cc1C(=O)C[N+](=O)[O-] [Example 4, 2-ethoxycarbonyl-4,5-dimethyl-ω-nitroacetophenone] | 12 |  |  |  | 53 | 16 | 42 | 
Cc1cc(C(=O)O)c(C(=O)C[N+](=O)[O-])cc1C [Example 9, 4,5-dimethyl-ω-nitroacetophenone-2-carboxylic acid] | 33 |  |  |  | 13 | 57 | 32 | 
COC(=O)c1cccc(-c2ccccc2)c1C(=O)C[N+](=O)[O-] [Example 7] | 8 |  |  |  | -13 | 14 | -2 | 
COC(=O)c1ccccc1C(=O)C[N+](=O)[O-] [Example 1, 2-methoxycarbonyl-ω-nitroacetophenone] | 0 |  |  |  | 32 | 12 | 23 | 
Cc1cc(C(=O)C[N+](=O)[O-])c(C(=O)OC(C)C)cc1C [Example 6, 2-Isopropoxycarbonyl-4,5-dimethyl-ω-nitroacetophenone] | 16 | 20 |  |  |  | 30 |  | 41
CCOC(=O)c1ccccc1C(=O)C[N+](=O)[O-] [Example 2, 2-ethoxycarbonyl-ω-nitroacetophenone] | 22 |  |  |  | 57 | 34 | 58 | 
O=C(O)c1ccccc1C(=O)C[N+](=O)[O-] [Example 8, ω-nitroacetophenone-2-carboxylic acid] | 12 | 18 |  |  |  | 48 |  | 37
